Experimental data as given in patent US20080306124A1, “Polycyclic Oxadiazoles or I Soxazoles and Their Use as Sip Receptor Ligands” (priority 2005, published 2008).

The compounds below were run against T1, S1P1 (EDG-1) receptor (Homo sapiens, UniProt P21453) (assay: S1P1 (EDG-1) GTP [γ-35S] binding assay, membranes from CHO cells). Conditions: membranes of CHO cells expressing human EDG-1.
T1 construct: expressed in transfected cells
Type: biochemical
Method: A. In vitro: GPCR Activation Assay Measuring GTP [γ-^35S] Binding to Membranes Prepared from CHO Cells Expressing Human EDG Receptors
S1P1 (EDG-1) GTP [γ-^35S] binding assay: Homogenized membranes are prepared from CHO cell clones stably expressing a human EDG-1 N-terminal c-myc tag. Cells are grown in suspension in two 850 cm^2 roller bottles for three or fours days before harvesting. The cells are centrifuged down, washed once with cold PBS, and resuspended in ≦20 ml of Buffer A (20 mM HEPES, pH 7.4, […], EDTA-free complete protease inhibitor cocktail [1 tablet/25 ml]). The cell suspension is homogenized on ice, using a Polytron homogenizer at 30000 rpm at three intervals of 15 seconds each. The homogenate is first centrifuged at 2000 rpm on a tabletop low speed centrifuge for 10 minutes. The supernatant, after passing through a cell strainer, is then re-centrifuged at 50,000×g for 25 minutes at 4° C. The pellet is resuspended into buffer B (15% glycerol, 20 mM HEPES, pH 7.4, 0.1 mM EDTA, EDTA-free complete protease inhibitor cocktail [1 tablet/10 ml]). Protein concentration of the preparation is determined using the BCA Protein Assay kit (Pierce) using BSA as standard. The membranes are aliquoted and kept frozen at −80° C.
Solutions of test compounds ranging from 10 mM to 0.01 nM are prepared in DMSO. S1P is diluted in 4% BSA solution as positive controls. The desired amount of membrane preparation is diluted with ice-cold assay buffer (20 mM HEPES, pH 7.4, 100 mM NaCl, 10 mM MgCl2, 0.1% Fatty acid-free BSA, 5 μM GDP) and vortexed well. 2 μl or less of compound is distributed into each well of a round-bottom 96-well polystyrene assay plate, followed by addition of 100 µl of diluted membranes ([…]/well) and kept on ice until the addition of hot GTPγS. [^35S]-GTPγS is diluted 1:1000 (v/v) with cold assay buffer and 100 μl is added into each well. The reaction is carried out at room temperature for 90 minutes before the membranes are harvested onto Perkin-Elmer Unifilter® GF/B-96 filter plate using a Packard Filtermate Harvester. After several washes with wash buffer (20 mM HEPES, pH 7.4, 100 mM NaCl, 10 mM MgCl2), and a rinse with 95% ethanol, the filter is dried in a 37° C. oven for 30 minutes. MicroScint-20 is added and the plate sealed for scintillation counting on TopCount. EC50 values are obtained by fitting the GTP [γ-^35S] binding curves (raw data) with the dose response curve-fitting tool of GraphPad Prism. Six or twelve different concentrations are used to generate a concentration response curve (using three data points per concentration).

T1 sequence (P21453 whole entry): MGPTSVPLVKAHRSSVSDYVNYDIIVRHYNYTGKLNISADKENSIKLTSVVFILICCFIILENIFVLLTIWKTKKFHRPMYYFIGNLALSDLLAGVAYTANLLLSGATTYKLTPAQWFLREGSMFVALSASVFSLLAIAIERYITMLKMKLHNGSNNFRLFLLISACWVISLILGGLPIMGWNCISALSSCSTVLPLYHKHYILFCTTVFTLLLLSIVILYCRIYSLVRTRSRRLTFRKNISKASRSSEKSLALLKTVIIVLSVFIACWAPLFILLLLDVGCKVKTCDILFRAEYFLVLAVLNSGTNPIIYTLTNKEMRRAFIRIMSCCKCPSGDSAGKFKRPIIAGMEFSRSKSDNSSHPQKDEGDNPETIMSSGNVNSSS

| EC50 | Compound |
| --- | --- |
| < 1 nM | CCc1ccccc1-c1ccc(-c2nc(-c3ccc(S(=O)(=O)NCC(=O)O)cc3)no2)cc1C(F)(F)F [Example 45] |
| < 1 nM | O=C(O)CCNS(=O)(=O)c1ccc(-c2noc(-c3ccc(Oc4cccc(F)c4)c(C(F)(F)F)c3)n2)cc1 [Example 54] |
| < 1 nM | NS(=O)(=O)c1ccc(-c2noc(-c3ccc(OC4CCCC4)c(C(F)(F)F)c3)n2)cc1 [Example 145] |
| < 1 nM | CCc1cc(-c2noc(-c3ccc(-c4ccccc4F)c(C(F)(F)F)c3)n2)ccc1S(N)(=O)=O [Example 194, 2-Ethyl-4-[5-(2′-fluoro-2-trifluoromethyl-biphenyl-4-yl)-[1,2,4]oxadiazol-3-yl]-benzenesulfonamide] |
| < 1 nM | CCc1cc(-c2noc(-c3ccc(C4CCCCC4)c(C(F)(F)F)c3)n2)ccc1S(N)(=O)=O [Example 196, 4-[5-(4-Cyclohexyl-3-trifluoromethyl-phenyl)-[1,2,4]oxadiazol-3-yl]-2-ethyl-benzenesulfonamide] |
